Biological target: recombinant CaMKIIδ (Homo sapiens (Human), UniProt Q13557)
Experiment: CaMKIIδ biochemical assay (HTRF)
Details: 10 pM CaMKIIδ, 110 nM calmodulin, 12 μM ATP, 1 hour; read-out: CAMKIID-HTRF-384V2 (IC50 - nM)
Method: CaMKIIδ Biochemical Assay
The biochemical activity of recombinant CaMKIIδ was measured by monitoring the phosphorylation of a target peptide using Homogenous Time Resolved Fluorescence (HTRF) technology from CisBio Bioassays.

**Q.** Which IC50 does the source give for `CCN(CC)[C@@H](C)CNC(=O)c1cc(OC[C@H](C)OC)nc(-c2cnn3ccc(-c4cccs4)nc23)c1` [Example 344, N—((S)-2-(diethylamino)propyl)-2-((S)-2-methoxypropoxy)-6-(5-(thiophen-2-yl)pyrazolo[1,5-a]pyrimidin-3-yl)isonicotinamide] here?
**A.** Its IC50 is 0.56 nM.

**Q.** `O=C(c1cc(-c2cnn3ccc(-c4cccs4)nc23)nc(N2CCN(C3COC3)CC2)c1)N1CC2CCC(C1)NC2` (stereo not shown) [Example 324, (-3,6-diazabicyclo[3.2.2]nonan-3-yl)(2-(4-(oxetan-3-yl)piperazin-1-yl)-6-(5-(thiophen-2-yl)pyrazolo[1,5-a]pyrimidin-3-yl)pyridin-4-yl)methanone] was tested. Which IC50 did it give?
**A.** The IC50 was 3.59 nM.

**Q.** For `CCN(CC)[C@@H](C)CNC(=O)c1cc(-c2cn[nH]c2)nc(-c2cnn3ccc(-c4cccs4)nc23)c1` [Example 340, (S)—N-(2-(diethylamino)propyl)-2-(1H-pyrazol-4-yl)-6-(5-(thiophen-2-yl)pyrazolo[1,5-a]pyrimidin-3-yl)isonicotinamide], which IC50 is on record?
**A.** The IC50 was 0.05 nM.

**Q.** Which IC50 does the source give for `CCN(CC)[C@@H](C)CNC(=O)c1cc(NCc2ncc[nH]2)nc(-c2cnn3ccc(-c4cccs4)nc23)c1` [Example 237, (S)-2-(((1H-imidazol-2-yl)methyl)amino)-N-(2-(diethylamino)propyl)-6-(5-(thiophen-2-yl)pyrazolo[1,5-a]pyrimidin-3-yl)isonicotinamide] here?
**A.** Its IC50 is 0.13 nM.

**Q.** With `CCN(CC)[C@@H](C)CNC(=O)c1cc(Nc2cn[nH]c2)nc(-c2cnn3ccc(-c4cccs4)nc23)c1` [Example 231, (S)-2-((1H-pyrazol-4-yl)amino)-N-(2-(diethylamino)propyl)-6-(5-(thiophen-2-yl)pyrazolo[1,5-a]pyrimidin-3-yl)isonicotinamide] as the compound, how does the IC50 read?
**A.** The IC50 was 0.06 nM.

**Q.** With `CCN(CC)[C@@H](C)CNC(=O)c1cc(-c2cnn3ccc(-c4cccs4)nc23)nc(N2CC[C@H]2C(=O)N2CC(F)C2)c1` [Example 284, N—((S)-2-(diethylamino)propyl)-2-((S)-2-(3-fluoroazetidine-1-carbonyl)azetidin-1-yl)-6-(5-(thiophen-2-yl)pyrazolo[1,5-a]pyrimidin-3-yl)isonicotinamide] as the compound, how does the IC50 read?
**A.** The IC50 was 0.18 nM.

**Q.** With `CC(C)C(N)CNC(=O)c1ccnc(-c2cnn3ccc(-c4ccccc4)nc23)c1` (stereo not shown) [Example 47, N-(2-amino-3-methylbutyl)-2-(5-phenylpyrazolo[1,5-a]pyrimidin-3-yl)isonicotinamide] as the compound, how does the IC50 read?
**A.** Its IC50 is 35.3 nM.

**Q.** `CCN[C@@H](C)CNC(=O)c1cc(-c2cnn3ccc(-c4cccs4)nc23)nc(N2CC(C)(O)C2)c1` [Example 245, (S)—N-(2-(ethylamino)propyl)-2-(3-hydroxy-3-methylazetidin-1-yl)-6-(5-(thiophen-2-yl)pyrazolo[1,5-a]pyrimidin-3-yl)isonicotinamide] was tested. Which IC50 did it give?
**A.** Its IC50 is 9.25 nM.

**Q.** `CCN(CC)[C@@H](C)CNC(=O)c1cc(-c2cnn3ccc(-c4ccns4)nc23)nc(N2CC(OC)C2)c1` [Example 176, (S)—N-(2-(diethylamino)propyl)-2-(5-(isothiazol-5-yl)pyrazolo[1,5-a]pyrimidin-3-yl)-6-(3-methoxyazetidin-1-yl)isonicotinamide] was tested. Which IC50 did it give?
**A.** The IC50 was 0.29 nM.

**Q.** How did the IC50 turn out when `CCCN[C@@H](C)CNC(=O)c1ccnc(-c2cnn3ccc(-c4cccs4)nc23)c1` [Example 23, (S)—N-(2-(propylamino)propyl)-2-(5-(thiophen-2-yl)pyrazolo[1,5-a]pyrimidin-3-yl)isonicotinamide] was run?
**A.** Its IC50 is 14.6 nM.

**Q.** Which IC50 does the source give for `Cc1cnc(-c2cnn3ccc(-c4ccccc4)nc23)cc1C(=O)N1CCCC[C@@H]1CN` [Example 136, (R)-(2-(aminomethyl)piperidin-1-yl)(5-methyl-2-(5-phenylpyrazolo[1,5-a]pyrimidin-3-yl)pyridin-4-yl)methanone] here?
**A.** The IC50 was 0.84 nM.

**Q.** Which IC50 does the source give for `CCN(CC)[C@@H](C)CNC(=O)c1cc(OCc2cccnc2)nc(-c2cnn3ccc(-c4cccs4)nc23)c1` [Example 354, (S)—N-(2-(diethylamino)propyl)-2-(pyridin-3-ylmethoxy)-6-(5-(thiophen-2-yl)pyrazolo[1,5-a]pyrimidin-3-yl)isonicotinamide] here?
**A.** The IC50 was 1.05 nM.

**Q.** How did the IC50 turn out when `CCN(CC)[C@@H](C)CNC(=O)c1cc(-c2cnn3ccc(-c4cccs4)nc23)nc(N2CC[C@H]2C(=O)N2CC(O)C2)c1` [Example 304, N—((S)-2-(diethylamino)propyl)-2-((S)-2-(3-hydroxyazetidine-1-carbonyl)azetidin-1-yl)-6-(5-(thiophen-2-yl)pyrazolo[1,5-a]pyrimidin-3-yl)isonicotinamide] was run?
**A.** The IC50 was 0.17 nM.

**Q.** How did the IC50 turn out when `CCN(CC)[C@@H](C)CNC(=O)c1cc(-c2cnn3ccc(-c4cccs4)nc23)nc(N2CC(NS(=O)(=O)CC)C2)c1` [Example 182, (S)—N-(2-(diethylamino)propyl)-2-(3-(ethylsulfonamido)azetidin-1-yl)-6-(5-(thiophen-2-yl)pyrazolo[1,5-a]pyrimidin-3-yl)isonicotinamide] was run?
**A.** The IC50 was 0.16 nM.

**Q.** With `N[C@H]1CC[C@H]2CCCN(C(=O)c3ccnc(-c4cnn5ccc(-c6ccccc6)nc45)c3)[C@H]21` [Example 94, ((4aR,7S,7aR)-7-aminooctahydro-1H-cyclopenta[b]pyridin-1-yl)(2-(5-phenylpyrazolo[1,5-a]pyrimidin-3-yl)pyridin-4-yl)methanone] as the compound, how does the IC50 read?
**A.** The IC50 was 7 nM.

**Q.** Which IC50 does the source give for `CCN[C@@H](CO)CNC(=O)c1ccnc(-c2cnn3ccc(-c4ccccc4)nc23)c1` [Example 59, (R)—N-(2-(ethylamino)-3-hydroxypropyl)-2-(5-phenylpyrazolo[1,5-a]pyrimidin-3-yl)isonicotinamide] here?
**A.** Its IC50 is 5.34 nM.

**Q.** With `CCN(CC)[C@@H](C)CNC(=O)c1cc(-c2cnn3ccc(-c4cccs4)nc23)nc(N2CC[C@H]2C(=O)NCCF)c1` [Example 281, N—((S)-2-(diethylamino)propyl)-2-((S)-2-((2-fluoroethyl)carbamoyl)azetidin-1-yl)-6-(5-(thiophen-2-yl)pyrazolo[1,5-a]pyrimidin-3-yl)isonicotinamide] as the compound, how does the IC50 read?
**A.** Its IC50 is 0.46 nM.

**Q.** For `CCN(CC)C(CNC(=O)c1ccnc(-c2cnn3ccc(-c4ccccc4)nc23)c1)C(C)C` (stereo not shown) [Example 61, N-(2-(diethylamino)-3-methylbutyl)-2-(5-phenylpyrazolo[1,5-a]pyrimidin-3-yl)isonicotinamide], which IC50 is on record?
**A.** Its IC50 is 3.6 nM.

**Q.** For `CCN(CC)[C@@H](C)CNC(=O)c1cc(-c2cnn3ccc(-c4cccs4)nc23)nc(N2CC(NC(C)=O)C2)c1` [Example 198, (S)-2-(3-acetamidoazetidin-1-yl)-N-(2-(diethylamino)propyl)-6-(5-(thiophen-2-yl)pyrazolo[1,5-a]pyrimidin-3-yl)isonicotinamide], which IC50 is on record?
**A.** The IC50 was 0.15 nM.

**Q.** `CCN(CC)[C@@H](C)CNC(=O)c1cc(NS(=O)(=O)C2CC2)nc(-c2cnn3ccc(-c4cccs4)nc23)c1` [Example 180, (S)-2-(cyclopropanesulfonamido)-N-(2-(diethylamino)propyl)-6-(5-(thiophen-2-yl)pyrazolo[1,5-a]pyrimidin-3-yl)isonicotinamide] was tested. Which IC50 did it give?
**A.** Its IC50 is 0.47 nM.

**Q.** Which IC50 does the source give for `CCN(CC)[C@H](CNC(=O)c1ccnc(-c2cnn3ccc(-c4ccccc4)nc23)c1)COc1ncccn1` [Example 70, (R)—N-(2-(diethylamino)-3-(pyrimidin-2-yloxy)propyl)-2-(5-phenylpyrazolo[1,5-a]pyrimidin-3-yl)isonicotinamide] here?
**A.** Its IC50 is 30.1 nM.

**Q.** With `CCN(CC)[C@@H](C)CNC(=O)c1cc(NCCCO)nc(-c2cnn3ccc(-c4cccs4)nc23)c1` [Example 220, (S)—N-(2-(diethylamino)propyl)-2-((3-hydroxypropyl)amino)-6-(5-(thiophen-2-yl)pyrazolo[1,5-a]pyrimidin-3-yl)isonicotinamide] as the compound, how does the IC50 read?
**A.** The IC50 was 0.11 nM.

Source: patent US10100058B2, “Fused heterocyclic compounds as CaM kinase inhibitors” (Gilead Sciences, Inc., priority 2016, dated 2018)
